Here are results for seven molecules from patent US5246956A, “N-imidazolyl derivatives of substituted alkoxyimino tetrahydronaphthalenes and chromans having antithromboxane A2 activity” (Farmitalia Carlo Erba S.r.l., priority 1991, dated 1993).

Like-named read-outs stand apart in the source and are kept apart here.

One assay has as its system TxB2 synthesis. Kind of assay: TxB2 synthesis inhibition in vitro, in whole blood of normal rats. It counts as cell-based, rat (Sprague Dawley). The protocol: (§1) The effects of a representative group of compounds of the invention were evaluated, in comparison with known compounds, on TxB2 synthesis inhibition in vitro, in whole blood of normal rates, and on TxA2 antagonism in a binding assay in washed human platelets.
TxB2 synthesis inhibition
Blood was withdrawn from the abdominal aorta of normal Sprague Dawley rats (Charles River Italy) under light ether anaesthesia. The blood was immediately divided in portions of 0.5 ml and distributed in glass tubes each containing a concentration of the test compound, or of the reference compounds.
Samples were then allowed to clot for 1 hour at 37° C., centrifuged at 3000 rpm for 10 min, and serum collected and stored at -20° C. until assayed.

For assay [1], the target named is T1, TXA2 receptor (washed human platelets) (Homo sapiens, UniProt P21731).
T1 construct: endogenous in cells; host or cells: washed human platelets from healthy volunteers
T1 sequence (P21731 1-343): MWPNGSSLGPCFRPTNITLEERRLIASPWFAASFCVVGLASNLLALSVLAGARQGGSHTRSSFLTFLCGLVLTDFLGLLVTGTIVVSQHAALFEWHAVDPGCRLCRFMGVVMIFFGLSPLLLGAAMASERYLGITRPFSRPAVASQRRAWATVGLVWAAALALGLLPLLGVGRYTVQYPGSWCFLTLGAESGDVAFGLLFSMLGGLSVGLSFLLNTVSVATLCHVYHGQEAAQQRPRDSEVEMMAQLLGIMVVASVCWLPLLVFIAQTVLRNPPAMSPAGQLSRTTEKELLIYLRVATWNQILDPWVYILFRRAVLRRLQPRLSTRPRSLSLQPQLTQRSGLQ
Description: Displacement of [^3 H]-SQ 29,548 binding to washed human platelets (TxA2 antagonism). As for the experimental part:
as §1
Displacement of [^3 H]--SO 29,548 binding to washed human platelets.
Blood from healthy volunteers of both sexes who had not taken any medication for at least 10 days was collected into one-tenth volume of acid citrate dextrose containing indomethacin (28 μM). Platelet rich plasma (PRP), obtained by centrifugation of the blood at 200 xg for 20 min. was washed twic (1000 xg for 10 min). The platelets are then resuspended in Tyrode-Hepes buffer (pH 7.4) to a final concentration of […] and incubated for 0-60 min at 25° with [^3 H]--SQ 29,548 (5 nM). For displacement experiments various concentrations (10^-9 -10^-4 M) of competing ligands were added and incubated for 30 min at 25° C. […] After the incubation, 4 ml of ice-cold TRIS-HC1 buffer (10 mM, pH 7.4) was added to each tube and the reaction mixture was immediately filtered by suction through a Whatman GF/C glass filter disc which was washed 2 times with ice-cold TRIS-CH1 (4 ml) and counted for radioactivity by a Packard β-counter.
The binding data were analysed by computerized non-linear curve fitting using the Ligand program and expressed as ID50.

The mark [2] stands for this setting: Rattus norvegicus, Table 2, whole blood of normal rats, 1 hour at 37° C., read-out: In vitro effect on TxB2 synthesis in normal rats, IC50 (whole blood).
[3] abbreviates: Table 3, rat whole blood, read-out: TxB2 synthesis IC50.

Consider `CC1Oc2ccccc2/C(=N/OCCCCC(=O)O)C1n1ccnc1` (stereo not shown) [FCE 26365, 5-[[2-methyl-3-(1H-imidazol-1-yl)-2,3-dihydro-4H-1-benzopyranylidene]aminoxy]pentanoic acid], for which the IC50 (usually the concentration at which inhibition is half-maximal) in the assay on TxB2 synthesis (setting [2]) came to 27 nM. In the assay with TxB2 synthesis (in words), the “inhibition of platelet TxA2 synthase” value is “potent inhibitor of platelet TxA2 synthase”.
With `O=C(O)Cc1ccc(CCNS(=O)(=O)c2ccc(Cl)cc2)cc1` [BM 13505], the “TxB2 synthesis IC50” value with TxB2 synthesis (Table 3, rat whole blood) was “inactive”.
Turning to `CC(=O)Oc1ccccc1C(=O)O` [ASA, acetylsalicilic acid], in the assay on TxB2 synthesis (Rattus norvegicus, 1 h, read-out: In vitro effect on TxB2 synthesis in normal rats, IC50 (whole blood)), the IC50 was determined as 31000 nM.
As for `O=C(O)CCCCCO/N=C1/c2ccccc2OC(c2ccccc2)C1n1ccnc1` (racemic) [FCE 27016, (+-)-(Z)-6-[[2-phenyl-3-(1H-imidazol-1-yl)-2,3-dihydro-4H-benzopyranylidene]aminoxy]hexanoic acid], in assay [1] (Table 1, washed human platelets, 30 min at 25° C., read-out: ^3 H SQ 29548 binding displacement (washed human platelet) IC50), the IC50 came out at 33 nM. Further, the TxA2 antagonism result in assay [1] (platelets, in words) is recorded as “patent TxA2 antagonist”. Moreover, the “affinity for the receptor compared with BM 13505 and BM 13177” value in assay [1] (washed human platelets, in words) is “greater than those of compounds BM 13505 and BM 13177”.
With `COc1ccc2c(c1)/C(=N/OCCCCC(=O)O)C(n1ccnc1)C(c1ccc(OC)c(OC)c1)O2` (racemic) [FCE 26603, (+-)-(Z)-5-[[2-(3,4-dimethoxyphenyl)-3-(1H-imidazol-1-yl)-2,3-dihydro-6-methoxy-4H-1-benzopyranylidene]aminoxy]pentanoic acid], the IC50 in assay [1] (Table 3, washed human platelets, read-out: ^3 H-SQ 29548 binding displacement IC50) was 100 nM; in the assay with TxB2 synthesis (setting [3]), 200 nM.
`O=C(O)COc1ccc(CCNS(=O)(=O)c2ccccc2)cc1` [BM 13177]: the “TxB2 synthesis IC50” value in the assay on TxB2 synthesis (Table 3, rat whole blood) was “inactive”.
For the molecule `O=C(O)c1ccc(OCCn2ccnc2)cc1` [Dazoxiben], the “^3 H-SQ 29548 binding displacement IC50” value in assay [1] (Table 3, washed human platelets) was “inactive”. Further, the IC50 in the assay with TxB2 synthesis (setting [2]) and with TxB2 synthesis (setting [3]) was 1200 nM throughout.
